The test system of data set [1] is MOLT-4 (Human T-Lymphoid Cell Line). Briefly: MTT cytotoxicity assay, MOLT-4. Type of data set: cell-based. The following applies: MOLT-4, 48 h incubation, average (SD) of three experiments, read-out: IC50 MOLT-4. The method, then:
(§1) The cytotoxicity of new derivatives of dicarboximides was tested in HeLa (cervix carcinoma cell line), K562 (myelogenous leukemia cell line), MOLT-4 (Human T-Lymphoid Cell Line), and HUVEC (normal endothelial) cells. First, the viability of cells was determined after 48 h incubation with the screened compounds used at the concentration of 100 μM (data not shown). […] Cells exposed to 1% DMSO (as vehicle) served as the control with 100% survival.
(§2) Human umbilical vein endothelial cells (Life Technologies, Carlsbad, CA, USA) were cultured (according to the manufacturer’s instructions) in Medium 200 containing low serum growth supplement; 1 × 10^4 cells were seeded on each well on a 96-well plate (Nunc, Roskilde, Denmark). The HeLa (human cervix carcinoma), K562, and MOLT-4 (leukemia) cells were cultured in RPMI 1640 medium supplemented with antibiotics and 10% fetal calf serum in a 5% CO2–95% air atmosphere; 7 × 10^3 cells were seeded on each well on a 96-well plate (Nunc). Twenty-four hours later, cells were exposed to the test compounds for additional 48 hours. Stock solutions of test compounds were freshly prepared in DMSO. The final concentrations of the compounds tested in the cell cultures were 2 × 10^−1, 1 × 10^−1, 5 × 10^−2, 1 × 10^−2, 1 × 10^−3, and 1 × 10^−4 mM. The concentration of DMSO in the cell culture medium was 1%. The values of IC50 (the concentration of test compound required to reduce the cell survival fraction to 50% of the control) were calculated from dose–response curves and used as a measure of cellular sensitivity to a given treatment. The cytotoxicity of all compounds was determined by the MTT [3-(4,5-dimethylthiazol-2-yl)-2,5-diphenyltetrazolium bromide; Sigma, St. Louis, MO, USA] assay. Briefly, after 24 or 48 h of incubation with drugs, the cells were treated with the MTT reagent, and incubation was continued for 2 h. MTT-formazan crystals were dissolved in 20% SDS and 50% DMF at pH 4.7, and absorbance was read at 570 and 650 nm on a microplate reader FLUOstar Omega (BMG Labtech, Offenburg, Germany). As a control (100% viability), we used cells grown in the presence of the vehicle (1% DMSO) only.

In data set [2] the test system is HeLa (human cervix carcinoma) cells. The data set can be described thus: MTT cytotoxicity assay, HeLa. Type of data set: cell-based. The following applies: 48 h incubation, average (SD) of three experiments, read-out: IC50 HeLa. The protocol: as §1, §2
A general note: Tetrazolium dyes change colour on reduction, which living cells bring about.

Data set [3] can be described thus: Lipophilicity (logkw) by reversed-phase chromatography (RP-HPLC). It counts as physicochemical. The following applies: for logkw (Experimental): extrapolated to pure water; for logkw (Table S2): intercept of logk vs methanol fraction, n = 4. From the text: The main goal of the synthetic part was the synthesis of new derivatives of dicarboximides with decreased lipophilicity in comparison to the lead compounds, i.e., Ia–Ie and II. To reduce the lipophilicity of the new dicarboximides, a hydroxyalkyl chain connected with an aliphatic amine was introduced to the imides (Scheme 1). At the same time, the imide scaffold in derivatives from group 2 and 3 was the same as in lead compounds Ia–Ie and II, respectively (Figure 1). The structure of the imide was changed in derivatives 1b–1g. The lipophilicity of new derivatives was calculated using the Osiris Property Explorer program. For some compounds, lipophilicity was determined experimentally by a reversed-phase chromatography (detailed description is given in Materials and Methods and in the Supplementary Data, Table S2). Table 1 summarizes the calculated (clogP) and experimental (logkw) parameters of the lipophilicity of new derivatives.
The reversed-phase high-performance liquid chromatography (RP-HPLC) analysis was performed on a Merck–Hitachi LaChrom Elite System (Merck, Darmstadt, Germany) with diode array detector L-2455, thermostat L-2300, pump L-2130, and autosampler L-2200 and with the Waters XTerra MS RP-18 (3.5 μm, 150 × 4.6 mm) chromatographic column (Waters, Milford, MA, USA) as the stationary phase. The mobile phase consisted of methanol, water, and 0.1% (v/v) formic acid and was degassed by the use of the built-in membrane degasser. The methanol gradient grade for HPLC was purchased from Merck (Merck, Darmstadt, Germany) and formic acid from Polish Reagents (Polish Reagents, Gliwice, Poland); double-distilled water was used. Then, 5 μL of methanolic solutions (0.1%; m/v) of selected samples were applied to the chromatographic column by the use of an autosampler Hitachi L-2200 (LaChrom Elite, Hitachi-Merck, Darmstadt, Germany). The analysis was performed with the flow rate of 0.7 mL min^−1 in isocratic mode using various concentrations of organic modifier (methanol) in binary polar mobile phases; percentages of methanol in water were 45–70% (%, v/v) and changed by 5% per step. Chromatograms were detected at 254 nm and the temperature of the column was 25 °C. All experiments were repeated in triplicate, and the final results were taken to be the arithmetic means. Dead time was measured by the use of uracil (Calbiochem. Merck, Darmstadt, Germany). Statistical and regression analyses were performed using Statistica (ver. 13.3 for Windows). The chromatographic lipophilicity parameters ( logkW ) for selected samples were obtained by the extrapolation of the retention parameter logk to pure water, according to Equation (1):(1) logk=logkw−S·ϕ; where logkW is the value of the retention factor of a substance in pure water, S is the slope of the regression curve, and ϕ is the concentration of the organic modifier. The values of logk were calculated based on the raw HPLC data using the formula (2):(2) logk=logtR−t0/t0; where tR is the retention time and t0 is the dead retention time (determined for uracil).
The chromatographic lipophilicity parameters (logkௐ ) for selected samples were ob‐ tained by the extrapolation of the retention parame te r logk to pure water, according to […]
where logkௐ is the value of the retention factor of a substance in pure water, S is the slope of the regression curve, and φ is the concentration of the organic modifier. The values of logk were ca lcula ted based on the raw HPLC data using the formula: […]
logk ൌ log ሺ௧ೃ ି ௧బ௧బ ሻ (2) where tோ is the retention time and t଴ is the dead retention time (determined for ura‐ cil). The goodness of fit of the equation (1) to the experimental data was classified accord‐ ing to Jaffe (Jaffe, H. H. A Reexamination of the Hammet Equation. Chem. Rev. 1953, 53, In our RP‐HPLC experiments, the goodness of fit of the equation to the experi‐ mental data are excellent in most ca ses (r > 0.99). The F statistic val ues are, in all cases, […]

Data set [4] relates to HUVEC (normal endothelial) cells. The data set can be described thus: MTT cytotoxicity assay, HUVEC. It counts as cell-based. The following applies: Homo sapiens, 48 h incubation, average (SD) of three experiments, read-out: IC50 HUVEC. The protocol: as §1, §2
The subject of data set [5] is K562 (myelogenous leukemia cell line). Briefly: MTT cytotoxicity assay, K562. Type of data set: cell-based, human. The note with it: Homo sapiens, K562, 48 h, 48 h incubation; average (SD) of three experiments; read-out: IC50 K562. The protocol:
as §1, §2

In general, melting point refers to the temperature, or range, at which the solid turns liquid. The term pIC50 denotes the IC50 on a negative log10 scale, so that one unit is a factor of ten.

pIC50: −log10 of the molar value. Structures can show the parent of a compound that is named as a salt.

On to `CCCCN(CCCC)CC(O)CN1C(=O)C2C(C1=O)C1(C)C(=O)C2(C)C(c2ccccc2)=C1c1ccccc1` (centres unmarked) (as salt: HCl) [1e, 4-[3-(dibutylamino)-2-hydroxypropyl]-1,7-dimethyl-8,9-diphenyl-4-azatricyclo [5.2.1.0^2,6]dec-8-ene-3,5,10-trione], for which the melting point is 192 to 196 °C.

For the compound `CC12C(=O)C(C)(C(c3ccccc3)=C1c1ccccc1)C1C(=O)N(CC(O)CN3CCCCC3)C(=O)C12` (centres unmarked) (as salt: HCl) [1f, 4-[2-hydroxy-3-(piperidin-1-yl)propyl]-1,7-dimethyl-8,9-diphenyl-4-azatricyclo[5.2.1.0^2,6]dec-8-ene-3,5,10-trione], the melting point was 170 to 171 °C.

`CC12C(=O)C(C)(C(c3ccccc3)=C1c1ccccc1)C1C(=O)N(CCN3CCCCC3)C(=O)C12` (centres unmarked) (as salt: HCl) [1i, 4-[2-(piperidin-1-yl)ethy]-1,7-dimethyl-8,9-diphenyl-4-azatricyclo[5.2.1.0^2,6]dec-8-ene-3,5,10-trione] yielded a melting point of 214 to 216 °C.

Turning to `CC12C(=O)C(C)(C(c3ccccc3)=C1c1ccccc1)C1C(=O)N(CCN3CCOCC3)C(=O)C12` (centres unmarked) (as salt: HCl) [1j, 4-[2-(morpholin-4-yl)ethy]-1,7-dimethyl-8,9-diphenyl-4-azatricyclo[5.2.1.0^2,6]dec-8-ene-3,5,10-trione], the melting point was 227 to 228 °C.

In turn, `CCCCN(CCCC)CC(O)CN1C(=O)C2C(C1=O)C1(CC)C(=O)C2(CC)C(c2ccccc2)=C1c1ccccc1` (centres unmarked) (as salt: HCl) [2e, 4-[3-(dibutylamino)-2-hydroxypropyl]-1,7-diethyl-8,9-diphenyl-4-azatricyclo[5.2.1.0^2,6]dec-8-ene-3,5,10-trione] had a melting point of 92 to 110 °C.

Turning to `CCC12C(=O)C(CC)(C(c3ccccc3)=C1c1ccccc1)C1C(=O)N(CC(O)CN3CCCCC3)C(=O)C12` (centres unmarked) (as salt: HCl) [2f, 4-[2-hydroxy-3-(piperidin-1-yl)propyl]-1,7-diethyl-8,9-diphenyl-4-azatricyclo[5.2.1.0^2,6]dec-8-ene-3,5,10-trione], the melting point was 190 to 195 °C.

Take `CCCCN(CCCC)CC(O)CN1C(=O)C2C(C1=O)C1(c3ccccc3)CC2(c2ccccc2)C(c2ccccc2)=C1c1ccccc1` (centres unmarked) (as salt: HCl) [3e, 4-[3-(dibutylamino)-2-hydroxypropyl]-1,7,8,9-tetraphenyl-4-azatricyclo[5.2.1.0^2,6]dec-8-ene-3,5-dione]: the melting point fell in the range of 237 to 238 °C.

On to `O=C1C2C(C(=O)N1CC(O)CN1CCCCC1)C1(c3ccccc3)CC2(c2ccccc2)C(c2ccccc2)=C1c1ccccc1` (centres unmarked) (as salt: HCl) [3f, 4-[2-hydroxy-3-(piperidin-1-yl)propyl]-1,7,8,9-tetraphenyl-4-azatricyclo[5.2.1.0^2,6]dec-8-ene-3,5-dione], for which the melting point was 268 to 270 °C.

With `CC(C)(C)NCC(O)CN1C(=O)C2C(C1=O)C1(C)C(=O)C2(C)C(c2ccccc2)=C1c1ccccc1` (centres unmarked) [1c, 4-[3-(tert-butylamino)-2-hydroxypropyl]-1,7-dimethyl-8,9-diphenyl-4-azatricyclo [5.2.1.0^2,6]dec-8-ene-3,5,10-trione], the pIC50 in data set [1] was 4.55; in data set [2] it was 4.59; in data set [4], 4.64; in data set [5] it was 4.55. In addition, the “logkw (Experimental)” value in data set [3] is given as 4.91. Moreover, the “logkw (Table S2)” value in data set [3] was 4.9077.

For `CCN(CC)CC(O)CN1C(=O)C2C(C1=O)C1(C)C(=O)C2(C)C(c2ccccc2)=C1c1ccccc1` (centres unmarked) [1d, 4-[3-(diethylamino)-2-hydroxypropyl]-1,7-dimethyl-8,9-diphenyl-4-azatricyclo[5.2.1.0^2,6]dec-8-ene-3,5,10-trione], the pIC50 was 4.43 in data set [1], 4.23 in data set [2], 4.66 in data set [4] and 4.41 in data set [5]. Besides, in data set [3], the “logkw (Experimental)” value is 4.87. The “logkw (Table S2)” value in data set [3] is 4.8734.

As to `CCNCC(O)CN1C(=O)C2C(C1=O)C1(CC)C(=O)C2(CC)C(c2ccccc2)=C1c1ccccc1` (centres unmarked) [2b, 4-[3-(ethylamino)-2-hydroxypropyl]-1,7-diethyl-8,9-diphenyl-4-azatricyclo [5.2.1.0^2,6]dec-8-ene-3,5,10-trione], the negative logarithm of the IC50 (pIC50) was 4.85 in data set [1], 4.59 in data set [2], 5.47 in data set [4] and 5.10 in data set [5]. In addition, the “logkw (Experimental)” value in data set [3] is 5.08. Further, the “logkw (Table S2)” value in data set [3] was determined as 5.0846.

With `CCC12C(=O)C(CC)(C(c3ccccc3)=C1c1ccccc1)C1C(=O)N(CC(O)CN3CCOCC3)C(=O)C12` (centres unmarked) [2g, 4-[-2-hydroxy-3-(morpholin-4-yl)propyl]-1,7-diethyl-8,9-diphenyl-4-azatricyclo[5.2.1.0^2,6]dec-8-ene-3,5,10-trione], the pIC50 in data set [1] was 4.74; in data set [2] it was 4.64; in data set [4], 4.77; in data set [5], 4.70. Moreover, the “logkw (Experimental)” value in data set [3] was 4.98. Also, the “logkw (Table S2)” value in data set [3] amounted to 4.9763.

For `O=C1C2C(C(=O)N1CC(O)CN1CCOCC1)C1(c3ccccc3)CC2(c2ccccc2)C(c2ccccc2)=C1c1ccccc1` (centres unmarked) [3g, 4-[-2-hydroxy-3-(morpholin-4-yl)propyl]-1,7,8,9-tetraphenyl-4-azatricyclo[5.2.1.0^2,6]dec-8-ene-3,5-dione], the pIC50 in data set [1] is 5.28; in data set [2], 3.92; in data set [4] it was 4.77; in data set [5] it was 4.51. In addition, the “logkw (Experimental)” value in data set [3] is reported as 6.28. Further, in data set [3], the “logkw (Table S2)” value was 6.2759.

The values above are taken from paper PMC8122671, “New Succinimides with Potent Anticancer Activity: Synthesis, Activation of Stress Signaling Pathways and Characterization of Apoptosis in Leukemia and Cervical Cancer Cells” (International Journal of Molecular Sciences, 2021).
